Laboratory results from BindingDB's records for doi:10.7270/Q2NZ862K (Nmmlsc, 2007).

Molecular target: T1, fMet-Leu-Phe receptor (Homo sapiens, UniProt P21462)
T1 sequence (P21462 whole entry): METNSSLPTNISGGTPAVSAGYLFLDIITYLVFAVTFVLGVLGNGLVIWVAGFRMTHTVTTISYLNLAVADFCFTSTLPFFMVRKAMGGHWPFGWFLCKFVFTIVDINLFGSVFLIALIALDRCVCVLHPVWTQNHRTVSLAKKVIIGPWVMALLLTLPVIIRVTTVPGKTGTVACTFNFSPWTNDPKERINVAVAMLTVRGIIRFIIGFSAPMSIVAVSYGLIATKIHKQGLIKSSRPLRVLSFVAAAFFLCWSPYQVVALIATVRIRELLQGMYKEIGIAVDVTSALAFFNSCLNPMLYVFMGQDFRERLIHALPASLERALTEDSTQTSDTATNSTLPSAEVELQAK
Experiment: formyl peptide receptor binders – dose response (AID 519)

| Ki [µM] | SMILES |
| --- | --- |
| > 43.7 | Cc1ccc(C2C(C(=O)c3sc(C)nc3C)C(=O)C(=O)N2CCN2CCOCC2)o1 (stereo unspecified) [3-(2,4-dimethyl-1,3-thiazole-5-carbonyl)-4-hydroxy-2-(5-methylfuran-2-yl)-1-(2-morpholin-4-ylethyl)-2H-pyrrol-5-one] |
| 27.9 | CCCOc1ccc(C2C(C(=O)c3ccc(C)o3)C(=O)C(=O)N2Cc2cccnc2)cc1 (stereo unspecified) [3-(5-methylfuran-2-yl)carbonyl-4-oxidanyl-2-(4-propoxyphenyl)-1-(pyridin-3-ylmethyl)-2H-pyrrol-5-one] |
| 36.7 | COCCN1C(=O)C(=O)C(C(=O)c2ccco2)C1c1cccc(Oc2ccccc2)c1 (stereo unspecified) [3-(furan-2-carbonyl)-4-hydroxy-1-(2-methoxyethyl)-2-(3-phenoxyphenyl)-2H-pyrrol-5-one] |
| > 43.7 | C=CCOc1cccc(C2C(C(=O)c3ccco3)C(=O)C(=O)N2CCN2CCOCC2)c1 (stereo unspecified) [3-(furan-2-carbonyl)-4-hydroxy-1-(2-morpholin-4-ylethyl)-2-(3-prop-2-enoxyphenyl)-2H-pyrrol-5-one] |
| > 43.7 | O=C1C(=O)N(CCc2ccccc2)C(c2cccnc2)C1C(=O)c1ccco1 (stereo unspecified) [3-(furan-2-carbonyl)-4-hydroxy-1-(2-phenylethyl)-2-pyridin-3-yl-2H-pyrrol-5-one] |
| > 43.7 | CCCOc1ccc(C2C(C(=O)c3ccco3)C(=O)C(=O)N2CCCn2ccnc2)cc1 (stereo unspecified) [3-(furan-2-carbonyl)-4-hydroxy-1-(3-imidazol-1-ylpropyl)-2-(4-propoxyphenyl)-2H-pyrrol-5-one] |
| 9.5 | COCCCN1C(=O)C(=O)C(C(=O)c2ccco2)C1c1ccccc1 (stereo unspecified) [3-(furan-2-carbonyl)-4-hydroxy-1-(3-methoxypropyl)-2-phenyl-2H-pyrrol-5-one] |
| > 43.7 | Cc1cc(N2C(=O)C(=O)C(C(=O)c3ccco3)C2c2cccnc2)no1 (stereo unspecified) [3-(furan-2-carbonyl)-4-hydroxy-1-(5-methyl-1,2-oxazol-3-yl)-2-pyridin-3-yl-2H-pyrrol-5-one] |
| 35.9 | O=C1C(=O)N(CC2CCCO2)C(c2cccnc2)C1C(=O)c1ccco1 (stereo unspecified) [3-(furan-2-carbonyl)-4-hydroxy-1-(oxolan-2-ylmethyl)-2-pyridin-3-yl-2H-pyrrol-5-one] |
| 19.4 | COCc1cc(C2C(C(=O)c3ccco3)C(=O)C(=O)N2CCOCCO)ccc1O (stereo unspecified) [3-(furan-2-carbonyl)-4-hydroxy-1-[2-(2-hydroxyethoxy)ethyl]-2-[4-hydroxy-3-(methoxymethyl)phenyl]-2H-pyrrol-5-one] |
| > 43.7 | COc1cc(C2C(C(=O)c3ccco3)C(=O)C(=O)N2CCc2ccccc2)ccc1O (stereo unspecified) [3-(furan-2-carbonyl)-4-hydroxy-2-(4-hydroxy-3-methoxyphenyl)-1-(2-phenylethyl)-2H-pyrrol-5-one] |
| 6.4 | C=CCOc1ccc(C2C(C(=O)c3ccco3)C(=O)C(=O)N2Cc2cccnc2)cc1 (stereo unspecified) [3-(furan-2-carbonyl)-4-hydroxy-2-(4-prop-2-enoxyphenyl)-1-(pyridin-3-ylmethyl)-2H-pyrrol-5-one] |
| > 43.7 | O=C1CCCC(=O)C1C(C#Cc1ccccc1)C1C(=O)CCCC1=O [3-hydroxy-2-[1-(2-hydroxy-6-keto-cyclohexen-1-yl)-3-phenyl-prop-2-ynyl]cyclohex-2-en-1-one] |
| 28.1 | COC(=O)c1ccc(C2C(C(=O)c3ccc(OC)cc3)C(=O)C(=O)N2Cc2ccco2)cc1 (stereo unspecified) [4-[(3Z)-1-(2-furanylmethyl)-3-[hydroxy-(4-methoxyphenyl)methylidene]-4,5-dioxo-2-pyrrolidinyl]benzoic acid methyl ester] |
| 13.6 | COC(=O)c1[nH]c(C)c(C(=O)C2C(=O)C(=O)N(CCN3CCOCC3)C2c2cccnc2)c1C (stereo unspecified) [4-[(E)-hydroxy-[1-[2-(4-morpholinyl)ethyl]-4,5-dioxo-2-(3-pyridinyl)-3-pyrrolidinylidene]methyl]-3,5-dimethyl-1H-pyrrole-2-carboxylic acid methyl ester] |
| 8.2 | Cc1ccsc1C1C2C(=O)CC(C)(C)CC2=Nc2ncnn21 (stereo unspecified) [6,6-dimethyl-9-(3-methyl-2-thienyl)-1,5,7,9-tetrahydro-[1,2,4]triazolo[5,1-b]quinazolin-8-one] |
| 21.3 | COc1cc(-n2nc(C)c3c2OC(=N)C(C#N)C3c2ccccc2)c(Cl)c(Br)c1O (stereo unspecified) [6-amino-1-(3-bromo-2-chloro-4-hydroxy-5-methoxyphenyl)-3-methyl-4-phenyl-1,4-dihydropyrano[2,3-c]pyrazole-5-carbonitrile] |
| > 43.7 | CSCCC1c2c(-c3cccs3)n[nH]c2OC(=N)C1C#N (stereo unspecified) [6-azanyl-4-(2-methylsulfanylethyl)-3-thiophen-2-yl-2,4-dihydropyrano[2,3-c]pyrazole-5-carbonitrile] |

| Ki [µM] | SMILES |
| --- | --- |
| 31.4 | Cc1ccc(C2c3c([nH]c(=S)[nH]c3=O)N=C3CC(C)(C)CC(=O)C32)cc1 (stereo unspecified) [8,8-dimethyl-5-(4-methylphenyl)-2-sulfanylidene-5,7,9,10-tetrahydro-1H-pyrimido[4,5-b]quinoline-4,6-dione] |
| > 43.7 | C=CCN1C(=O)C2(c3ccccc31)C(C(=O)c1ccc3c(c1)OCCO3)C(=O)C(=O)N2CCCOC (stereo unspecified) [(4'E)-1-allyl-4'-[2,3-dihydro-1,4-benzodioxin-6-yl(hydroxy)methylene]-1'-(3-methoxypropyl)spiro[indoline-3,5'-pyrrolidine]-2,2',3'-trione] |
| 37.6 | COc1cc(C2C(C(=O)c3ccc4c(c3)CC(C)O4)C(=O)C(=O)N2CCCn2ccnc2)ccc1O (stereo unspecified) [(4E)-1-(3-imidazol-1-ylpropyl)-5-(3-methoxy-4-oxidanyl-phenyl)-4-[(2-methyl-2,3-dihydro-1-benzofuran-5-yl)-oxidanyl-methylidene]pyrrolidine-2,3-dione] |
| > 43.7 | COCCCN1C(=O)C(=O)C(C(=O)c2ccc3c(c2)CC(C)O3)C1c1cccnc1 (stereo unspecified) [(4E)-1-(3-methoxypropyl)-4-[(2-methyl-2,3-dihydro-1-benzofuran-5-yl)-oxidanyl-methylidene]-5-pyridin-3-yl-pyrrolidine-2,3-dione] |
| > 43.7 | Cc1ccc(C)c(C(=O)C2C(=O)C(=O)N(CCCn3ccnc3)C2c2ccncc2)c1 (stereo unspecified) [(4E)-4-[(2,5-dimethylphenyl)-hydroxy-methylene]-1-(3-imidazol-1-ylpropyl)-5-(4-pyridyl)pyrrolidine-2,3-quinone] |
| > 43.7 | Cc1nc2c(C)cccn2c1C(=O)C1C(=O)C(=O)N(CCN2CCOCC2)C1c1cccs1 (stereo unspecified) [(4E)-4-[(2,8-dimethyl-3-imidazo[1,2-a]pyridinyl)-hydroxymethylidene]-1-[2-(4-morpholinyl)ethyl]-5-thiophen-2-ylpyrrolidine-2,3-dione] |
| > 43.7 | COc1cccc(C2C(C(=O)c3ccc(OC)c(OC)c3)C(=O)C(=O)N2c2cc(C)on2)c1 (stereo unspecified) [(4E)-4-[(3,4-dimethoxyphenyl)-hydroxy-methylene]-5-(3-methoxyphenyl)-1-(5-methylisoxazol-3-yl)pyrrolidine-2,3-quinone] |
| > 43.7 | COCCCN1C(=O)C(=O)C(C(=O)c2ccc(OC)cc2C)C1c1cccnc1 (stereo unspecified) [(4E)-4-[(4-methoxy-2-methyl-phenyl)-oxidanyl-methylidene]-1-(3-methoxypropyl)-5-pyridin-3-yl-pyrrolidine-2,3-dione] |
| 19.4 | COCCCN1C(=O)C(=O)C(C(=O)c2ccccc2)C1c1ccc2c(c1)OCO2 (stereo unspecified) [(4E)-5-(1,3-benzodioxol-5-yl)-1-(3-methoxypropyl)-4-[oxidanyl(phenyl)methylidene]pyrrolidine-2,3-dione] |
| > 43.7 | COc1ccc(C(=O)C2C(=O)C(=O)N(Cc3ccco3)C2c2ccc(OC)cc2OC)cc1 (stereo unspecified) [(4E)-5-(2,4-dimethoxyphenyl)-1-(2-furanylmethyl)-4-[hydroxy-(4-methoxyphenyl)methylidene]pyrrolidine-2,3-dione] |
| > 43.7 | CC1Cc2cc(C(=O)C3C(=O)C(=O)N(CCN4CCOCC4)C3c3ccccc3F)ccc2O1 (stereo unspecified) [(4E)-5-(2-fluorophenyl)-4-[(2-methyl-2,3-dihydro-1-benzofuran-5-yl)-oxidanyl-methylidene]-1-(2-morpholin-4-ylethyl)pyrrolidine-2,3-dione] |
| > 43.7 | Cc1ccc(C(=O)C2C(=O)C(=O)N(c3cc(C)on3)C2c2cccc(Br)c2)cc1 (stereo unspecified) [(4E)-5-(3-bromophenyl)-1-(5-methyl-1,2-oxazol-3-yl)-4-[(4-methylphenyl)-oxidanyl-methylidene]pyrrolidine-2,3-dione] |
| > 43.7 | Cc1cc(N2C(=O)C(=O)C(C(=O)c3ccc(F)cc3)C2c2cccc(Br)c2)no1 (stereo unspecified) [(4E)-5-(3-bromophenyl)-4-[(4-fluorophenyl)-hydroxy-methylene]-1-(5-methylisoxazol-3-yl)pyrrolidine-2,3-quinone] |
| > 43.7 | Cc1ccc(C(=O)C2C(=O)C(=O)N(CC(C)O)C2c2ccc(N(C)C)cc2)cc1 (stereo unspecified) [(4E)-5-[4-(dimethylamino)phenyl]-1-(2-hydroxypropyl)-4-[hydroxy(p-tolyl)methylene]pyrrolidine-2,3-quinone] |
| > 43.7 | CCOc1cccc(C(=O)C2C(=O)C(=O)N(Cc3ccco3)C2c2ccncc2)c1 (stereo unspecified) [(4Z)-1-(2-furfuryl)-4-[hydroxy(m-phenetyl)methylene]-5-(4-pyridyl)pyrrolidine-2,3-quinone] |
| 12.9 | COc1ccccc1C1C(C(=O)c2ccccc2)C(=O)C(=O)N1CCO (stereo unspecified) [(4Z)-1-(2-hydroxyethyl)-4-[hydroxy(phenyl)methylene]-5-(2-methoxyphenyl)pyrrolidine-2,3-quinone] |
| 37.8 | CCOc1ccc(C(=O)C2C(=O)C(=O)N(c3nc(C)c(C)s3)C2c2ccco2)cc1 (stereo unspecified) [(4Z)-1-(4,5-dimethyl-1,3-thiazol-2-yl)-4-[(4-ethoxyphenyl)-hydroxymethylidene]-5-(furan-2-yl)pyrrolidine-2,3-dione] |

| SMILES | Ki [µM] |
| --- | --- |
| CC1=C(C(=O)OC(C)C)[C@]2(C(=O)N(CC(N)=O)c3ccccc32)C(C#N)C(=N)O1 (stereo partly drawn) [(3R)-6'-amino-1-(2-amino-2-keto-ethyl)-5'-cyano-2-keto-2'-methyl-spiro[indoline-3,4'-pyran]-3'-carboxylic acid isopropyl ester] | > 43.7 |
